Where a SMILES comes first, the peptide text is derived from it. [ ]: non-standard residue; d: D form.
Assays:
[1] = Pharmacokinetics of c[wLwReQeR] via different routes of administration; assay type: in vivo, mice
Method: Pharmacokinetics. These experiments were carried out in part courtesy of Carol S. Ryan, Debra J. Search, Ricardo A. Garcia, and David A. Gordon at Bristol Myers Squibb (Hopewell, N.J., USA). Male Balb/C or C57BL/6 mice (20 g) were maintained on a chow diet. The cyclic peptide c[wLwReQeR] (SEQ ID NO:11) was dissolved in PBS containing 1% sucrose or 95% 50 mM acetate buffer containing 10% sucrose, 5% DMSO (pH=4), and sterile filtered through a 0.22-μm syringe filter before injection. Mice were fasted beginning 12 h before dosing, and continued the fast until after the 8-h time point blood draw was completed. Groups of three mice received a dose of the cyclic peptide via […] (5 mL/kg for subcutaneous and intraperitoneal, 10 mL/kg for oral gavage). Blood was drawn (30-60 μL) from the retro-orbital sinus into a heparinized capillary tube before dosing (0 min) and at different intervals from 30 min to 8 h after dosing. Plasma was isolated immediately from the whole blood by centrifugation at 5,000 rpm for 10 min at 4° C. Immediately after the plasma was isolated, 20 μL of plasma was acidified with 20 μL of 5% TFA to break peptide-protein interactions, and 40 μL of acetonitrile was then added. After vortexing for 30 s, the mixture was centrifuged at 13,000 rpm for 10 min at 4° C. The resultant supernatant was analyzed by using LC-MS SIM as described below.
LC-MS SIM quantitation of peptide concentration. Cyclic peptide concentrations were quantified by using reverse-phase HPLC coupled with mass spectrometry. The electrospray ionization mass spectrometry measurements were carried out in the positive ionization mode using a single quadrupole mass spectrometer (Hewlett Packard HP 1100 MSD series). 10 or 20 μL of sample were injected through a C8 reverse-phase column (Zorbax 300-SB, 4.6 mm×150 mm, 5 μm) using a flow rate of 1.5 mL/min and binary gradients of solvent A (99% H2O, 0.1% formic acid, 0.01% TFA) and solvent B (99% acetonitrile, 0.1% formic acid, 0.01% TFA). Mass detection was carried out in the selected ion monitoring (SIM) mode for the positive molecular ion, with the optimized fragmentor and capillary voltages of 180 V and 5 kV, respectively. The selected monitoring mass for cyclic peptide c[wLwReQeR] (SEQ ID NO:11) was 592.8 ([M+2H]^2+). For quantitative calibration, standard curves were established using mouse EDTA-anticoagulated plasma spiked with various concentrations of the peptide. The calibration curve was established by using linear fitting of the data, with correlation coefficient ≥0.98.

bile acids = bile acids in feces and plasma by targeted metabolomics; assay type: in vivo; conditions: WD-fed LDLr−/− mice, 2-wk treatment
Method: Measurement of secondary bile acids. Feces were obtained between 0900-1100 am from non-fasted animals after a 2-wk treatment period. Bile acids were extracted from samples according to published procedures (Wegner et al., Anal. Bioanal. Chem. 409, 1231-1245, 2017). Briefly, fecal samples were lyophilized and homogenized. Five milligrams of fecal powder were extracted with 250 μl of methanol containing heavy internal standards. Fifty microliters of plasma were extracted with 150 μL of methanol containing heavy internal standards. After vortexing for 10 minutes and centrifuging (16,000×g, 4 C, 10 min), supernatants were transferred to glass vials for injection and analysis by LCMS. Bile acids were analyzed on a Dionex Ultimate 3000 LC system (Thermo) coupled to a TSQ Quantiva mass spectrometer (Thermo) fitted with a Kinetex C18 reversed phase column (2.6 μm, 150×2.1 mm i.d., Phenomenex). The following LC solvents were used: solution A, 0.1% formic acid and 20 mM ammonium acetate in water, solution B, acetonitrile/methanol (3/1, v/v) containing 0.1% formic acid and 20 mM ammonium acetate. The following reversed phase gradient was utilized: at a flow rate of 0.2 mL/min with a gradient consisting of 25-29% B in 1 min, 29-33% B in 14 min, 33-70% B in 15 min, up to 100% B in 1 min, 100% B for 9 min and re-equilibrated to 25% B for 10 min, for a total run time of 50 min. The injection volume for all samples was 10 μL, the column oven temperature was set to 50° C. and the autosampler kept at 4° C. MS analyses were performed using electrospray ionization in positive and negative ion modes, with spray voltages of 3.5 and −3 kV, respectively, ion transfer tube temperature of 325° C., and vaporizer temperature of 275° C. Multiple reaction monitoring (MRM) was performed by using mass transitions between specific parent ions into corresponding fragment ions for each analyte.

SMILES: CC(C)C[C@@H]1NC(=O)[C@@H](Cc2c[nH]c3ccccc23)NC(=O)[C@H](CCCNC(=N)N)NC(=O)[C@@H](CCC(=O)O)NC(=O)[C@H](CCC(N)=O)NC(=O)[C@@H](CCC(=O)O)NC(=O)[C@H](CCCNC(=N)N)NC(=O)[C@@H](Cc2c[nH]c3ccccc23)NC1=O [c[wLwReQeR]] (cyclo([dW]L[dW]R[dE]Q[dE]R))
- Tmax ([1]; male, C57BL/6, mouse, plasma, oral gavage, 15 mg/kg, C57B1/6): < 3 h
- AUC(0-t) ([1]; male, C57BL/6, mouse, plasma, oral gavage, 15 mg/kg, C57B1/6, read-out: AUC 0-24 h): < 3 nM·h
- Cmax ([1]; male, mouse, plasma, ip, 16-mg/kg i.p., BALB/c mice, read-out: peak plasma concentration): 13 µM
- peptide in plasma after oral gavage ([1]; oral gavage, limit of detection=3 nM): not detectable
- CA level (bile acids; feces): 440 ± 490 pmol/mg feces
- DCA level (bile acids; feces): 4900 ± 2400 pmol/mg feces
- HCA level (bile acids; feces): 1.6 ± 1.1 pmol/mg feces
- LCA level (bile acids; feces): 400 ± 170 pmol/mg feces
- T-CA level (bile acids; feces): 8.3 ± 3.3 pmol/mg feces
- T-DCA level (bile acids; feces): 2.6 ± 1.2 pmol/mg feces
- T-HCA level (bile acids; feces): 0.097 ± 0.03 pmol/mg feces
- T-α-MCA level (bile acids; feces): 17 ± 8.7 pmol/mg feces
- T-β-MCA level (bile acids; feces): 20 ± 11 pmol/mg feces
- T-ω-MCA level (bile acids; feces): 3 ± 1.4 pmol/mg feces
- UDCA level (bile acids; feces): 43 ± 16 pmol/mg feces
- α-MCA level (bile acids; feces): 21 ± 8.9 pmol/mg feces
- β-MCA level (bile acids; feces): 65 ± 12 pmol/mg feces
- ω-MCA level (bile acids; feces): 170 ± 100 pmol/mg feces
- CA level (bile acids; plasma): 6300 ± 8300 pmol/mL plasma
- DCA level (bile acids; plasma): 2100 ± 2100 pmol/mL plasma
- HCA level (bile acids; plasma): 1.0 ± 0.84 pmol/mL plasma
- LCA level (bile acids; plasma): 100 ± 48 pmol/mL plasma
- T-CA level (bile acids; plasma): 16000 ± 31000 pmol/mL plasma
- T-DCA level (bile acids; plasma): 830 ± 1100 pmol/mL plasma
- T-HCA level (bile acids; plasma): 62 ± 110 pmol/mL plasma
- T-α-MCA level (bile acids; plasma): 1900 ± 3900 pmol/mL plasma
- T-β-MCA level (bile acids; plasma): 9800 ± 22000 pmol/mL plasma
- T-ω-MCA level (bile acids; plasma): 2400 ± 4900 pmol/mL plasma
- UDCA level (bile acids; plasma): 120 ± 92 pmol/mL plasma
- α-MCA level (bile acids; plasma): 10 ± 5.8 pmol/mL plasma
- β-MCA level (bile acids; plasma): 76 ± 75 pmol/mL plasma
- ω-MCA level (bile acids; plasma): 33 ± 11 pmol/mL plasma

From patent publication US20220040255A1, “CHEMOTHERAPEUTIC REMODELING OF THE GUT MICROBIOME” (THE SCRIPPS RESEARCH INSTITUTE, priority 2018, published 2022)
